We go through 90 molecules from PubChem BioAssay AID463203 (Broad Institute, 2010).

Calls of active or inactive are those of the source.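 How the source made its calls: active means more than half of replicate measurements showing over 20% loss of kinase signal relative to plate controls; inconclusive means some but at most half of replicates over 20% loss; inactive means no replicate over 20% signal loss.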

This test deals with Glycogen synthase kinase-3 alpha (Homo sapiens) (UniProt P49840). As to the kind of experiment: concentration-response blocking of human GSK3A – biochemical, luminescence, cell-free homogeneous, retest, dose response (AID 463203). Particulars: GSK-3 alpha enzyme, ADP-Glo luminescence, 60 min.
Chain of Glycogen synthase kinase-3 alpha (Homo sapiens) (P49840 whole entry, looked up): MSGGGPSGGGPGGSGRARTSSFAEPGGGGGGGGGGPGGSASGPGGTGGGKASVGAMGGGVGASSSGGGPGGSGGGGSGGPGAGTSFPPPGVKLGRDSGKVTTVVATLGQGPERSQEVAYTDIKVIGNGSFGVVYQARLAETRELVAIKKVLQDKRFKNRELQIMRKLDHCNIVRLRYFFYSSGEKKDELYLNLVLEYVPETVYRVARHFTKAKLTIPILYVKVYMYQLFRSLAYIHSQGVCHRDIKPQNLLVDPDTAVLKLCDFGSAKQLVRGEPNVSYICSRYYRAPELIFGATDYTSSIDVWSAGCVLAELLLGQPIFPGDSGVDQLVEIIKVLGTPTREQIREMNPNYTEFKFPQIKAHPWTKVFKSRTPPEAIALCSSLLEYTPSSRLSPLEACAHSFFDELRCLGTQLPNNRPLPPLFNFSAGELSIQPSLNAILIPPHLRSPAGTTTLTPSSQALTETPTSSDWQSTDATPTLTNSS

As for `O=[N+]([O-])c1ccc(-c2nnc(CNC3CCCC3)o2)cc1`, the AC50 is > 30 µM (inactive).

On to `CCOC(=O)C1CCCN(Cc2sccc2C)C1` (stereo not given), for which the AC50 is > 30 µM (inactive).

With `CCNc1ccccc(C(=O)/C=C/c2ccc3c(c2)OCO3)c1=O`, the AC50 was > 30 µM (inactive).

On to `COC(=O)c1c(NC(=O)CN2C(=O)NC3(CCc4ccccc4C3)C2=O)sc2c1CCCCC2` (stereo not given), for which the AC50 was > 30 µM (inactive).

Take `CNC(=O)c1ccc(NC(=O)C2CCN(c3ncnc4sc(C)c(C)c34)CC2)cc1`: the AC50 is > 30 µM (inactive).

With `Nc1cccc(C(=O)O)c1`, the AC50 was > 30 µM (inactive).

`COc1ccccc1NC(=O)CSc1nnc(-c2ccc(C)cc2)o1`: the AC50 is > 30 µM (inactive).

On to `COc1ccc(-n2c(O)c(C(C)=NCCCn3ccnc3)c(=O)[nH]c2=O)cc1`, for which the AC50 was 19 µM.

With `COCCNc1nnc(SCC(=O)NC2CCCCC2)s1`, the AC50 is > 30 µM (inactive).

`CC(=O)Nc1ccc(-c2csc(NCc3ccccc3)n2)cc1`: the AC50 was > 30 µM (inactive).

On to `CC(=O)Nc1ncc(Cc2cccc(Cl)c2Cl)s1`, for which the AC50 is > 30 µM (inactive).

Turning to `COc1ccc(OCC(=O)N2CCN(c3nnc(-c4ccc(C)cc4)c4ccccc34)CC2)cc1`, the AC50 is > 30 µM (inactive).

As to `Cc1sc2nc(SCC(=O)Nc3ccc(S(=O)(=O)NCCCC(=O)O)cc3)[nH]c(=O)c2c1C`, the AC50 was 7.13 µM.

As for `Cc1cccc(NC(=O)c2sc(Cl)nc2-c2ccccc2)c1`, the AC50 is > 30 µM (inactive).

On to `O=C(Nc1ccccc1N1CCN(C(=O)c2ccccc2)CC1)c1ccc(Br)o1`, for which the AC50 was 3.51 µM.

With `O=C(NCCN1CCc2ccccc2C1)Nc1ccc(F)cc1`, the AC50 was > 30 µM (inactive).

With `COc1ccccc1Nc1ccc(S(=O)(=O)N2CCCCC2)cc1[N+](=O)[O-]`, the AC50 is > 30 µM (inactive).

As to `Cc1cc(NC(=O)COC(=O)c2cc(S(=O)(=O)N3CCOCC3)ccc2N2CCCCC2)no1`, the AC50 is 10.1 µM.

Regarding `CCOc1cccc(-c2c(C(=O)N/N=C(\C)c3ccncc3)nnn2-c2nonc2N)c1`, the AC50 was 1.45 µM.

In the case of `CC(C(=O)Nc1nccs1)c1ccc([N+](=O)[O-])cc1` (stereo not given), the AC50 was 20.5 µM.

Consider `COC(=O)C1=C(C)NC(=O)NC1c1ccc2c(c1)OCO2` (stereo not given), for which the AC50 was > 30 µM (inactive).

Regarding `CC(C)NC(=O)Nc1cccc(Cl)c1`, the AC50 is > 30 µM (inactive).

For `COc1cc2c(C#N)c(N3CCCC3)nc(N)c2c(N)n1`, the AC50 was > 30 µM (inactive).

With `CSc1nc(NCC(C)C)nc(N2CCOCC2)n1`, the AC50 is > 30 µM (inactive).

Turning to `CN1CCN(c2ccccc2NC(=O)c2ccc(-c3ccccc3[N+](=O)[O-])o2)CC1`, the AC50 is 4.6 µM.

Regarding `O=c1[nH]c(=O)n(CCC2=CCCCC2)c(O)c1C=NCCCn1ccnc1`, the AC50 is 28.6 µM.

As to `COc1ccc2ccccc2c1C1CC(=O)N2CN(Cc3ccco3)CSC2=C1C#N` (stereo not given), the AC50 is > 30 µM (inactive).

`O=C(Cn1c(NCCO)nc2ccccc21)c1ccc([N+](=O)[O-])cc1`: the AC50 was > 30 µM (inactive).

In the case of `Cc1ccc(C2CC(=O)N3CN(Cc4ccco4)CSC3=C2C#N)cc1` (stereo not given), the AC50 is > 30 µM (inactive).

On to `CCN=C1S/C(=C/c2ccc(-c3ccc(Cl)cc3C(=O)O)o2)C(=O)N1CC`, for which the AC50 was 4.3 µM.

As for `O/N=C1/CC/C(=N\O)c2nn(-c3ccccc3)nc21`, the AC50 is 25.3 µM.

With `O=[N+]([O-])c1ccc(Nc2nc(Cl)nc(NCCO)n2)cc1`, the AC50 is > 30 µM (inactive).

On to `O=C(COC(=O)c1cccc(S(=O)(=O)N2CCOCC2)c1)Nc1ccc(Cl)cn1`, for which the AC50 was 7.3 µM.

On to `Cc1ccc(Cc2c(C)nc3nc(SCC(=O)NCCCN4CCCCCC4)nn3c2C)cc1`, for which the AC50 was > 30 µM (inactive).

As for `Cc1sc(NC(=O)CSc2nc(N)cc(N)n2)c(C#N)c1C`, the AC50 is > 30 µM (inactive).

Consider `CC1(C)Cc2c(sc3ncn(N)c(=N)c23)CO1`, for which the AC50 is > 30 µM (inactive).

For the molecule `COC(=O)c1cn(C(=O)c2ccc(Cl)cc2)c2ccccc12`, the AC50 was > 30 µM (inactive).

As to `CCCC(=O)NC(=S)Nc1cccc(C(C)=O)c1`, the AC50 was > 30 µM (inactive).

In the case of `CCC(=O)c1ccc(OCC(O)CN2CCCCC2)cc1` (stereo not given), the AC50 is > 30 µM (inactive).

With `CCCCCCCCOC(=O)C1=C(C)Nc2nnnn2C1c1cccs1` (stereo not given), the AC50 was > 30 µM (inactive).

As to `Nc1nonc1-n1nnc(C(=O)N/N=C/c2ccc(F)cc2)c1-c1cccs1`, the half-maximal activity concentration (AC50) is 1.05 µM.

As to `O=C1Nc2ccccc2/C1=C/c1cnc(-c2ccccc2)[nH]1`, the AC50 was > 30 µM (inactive).

With `CCCCN(CC)C(=O)c1oc2ccc(S(=O)(=O)N3CCCC3)cc2c1C`, the AC50 is > 30 µM (inactive).

Consider `Nc1c(C(=O)Nc2ccc3c(c2)OCCO3)nnn1Cc1ccccc1Cl`, for which the AC50 is > 30 µM (inactive).

As to `CCSc1cc(N2CCCC2)nc(-c2ccccc2)n1`, the AC50 is > 30 µM (inactive).

With `NC1=NC(=O)/C(=C\c2ccco2)S1`, the AC50 was > 30 µM (inactive).

Take `Cc1oc2ccc(O)cc2c1C(=O)c1ccc(F)cc1`: the AC50 was > 30 µM (inactive).

Consider `O=C(Nc1ccccc1C(=O)N1CCOCC1)c1cccnc1`, for which the AC50 was > 30 µM (inactive).

On to `NC(=O)c1cn(-c2ccccc2)nc1-c1cccnc1`, for which the AC50 was > 30 µM (inactive).

Consider `COc1ccc(NC(=O)CNc2cccc(S(=O)(=O)N3CCCCCC3)c2)c([N+](=O)[O-])c1`, for which the AC50 was > 30 µM (inactive).

In the case of `CC(=O)Nc1ccc(S(=O)(=O)NC(C)c2ccncc2)cc1` (stereo not given), the AC50 was > 30 µM (inactive).

As to `O=S(=O)(Nc1ccccc1O)c1cccc2cccnc12`, the AC50 is > 30 µM (inactive).

`CC(=NCCCn1ccnc1)c1c(O)n(C)c(=O)n(C)c1=O`: the AC50 is > 30 µM (inactive).

Consider `COc1ccc(OC)c(/C=C2\S/C(=N/NC(=O)c3ccc4ccccc4c3)NC2=O)c1`, for which the AC50 is > 30 µM (inactive).

For `Cc1cc(C)cc(NC(=O)CSCc2nc3c(nnn3Cc3ccc(F)cc3)c(=O)[nH]2)c1`, the AC50 was > 30 µM (inactive).

For `Cc1noc(C)c1COc1cccc(C(=O)OC(C)C(=O)Nc2c(C)n(C)n(-c3ccccc3)c2=O)c1` (stereo not given), the AC50 is > 30 µM (inactive).

For the molecule `O=C(Nc1ccccc1-c1nnc(SCc2ccccc2)o1)c1ccccc1`, the AC50 was > 30 µM (inactive).

As to `COCC(O)CSc1nc(C)[nH]c1[N+](=O)[O-]` (stereo not given), the AC50 was > 30 µM (inactive).

`C#CCOCCOCCOCCNc1nc(N2CCN(C(=O)[C@H](CCC(=O)O)n3cc([C@@H](N)CCCCN)nn3)CC2)nc(N2CCN(C(=O)[C@H](CCC(=O)O)n3cc([C@@H](N)CCCCN)nn3)CC2)n1`: the AC50 was > 30 µM (inactive).

Consider `COc1ccc(SCCN2CC[C@@H](C(C)(C)C)CCC2=O)cc1`, for which the concentration at half-maximal activity (AC50) is 23.6 µM.

As to `c1ccc(-c2nc3ccccc3[nH]2)cc1`, the AC50 was > 30 µM (inactive).

With `COc1ccccc1OCC(=O)Nc1sc2c(c1C(N)=O)CCC2`, the AC50 is > 30 µM (inactive).

Turning to `Cc1ccc(S(=O)(=O)Nc2cc(Cl)c(O)c3ncccc23)cc1`, the AC50 is > 30 µM (inactive).

For the molecule `COc1ccc(Br)cc1C1CC(=O)N2CN(Cc3ccccc3)CSC2=C1C#N` (stereo not given), the AC50 was > 30 µM (inactive).

As to `CC(C)c1ccc(C2CC(=O)N3CN(Cc4ccco4)CSC3=C2C#N)cc1` (stereo not given), the AC50 is 21 µM.

Regarding `CC(C)c1ccc(NC(=O)CSc2n[nH]c(=O)n2-c2ccc3c(c2)OCCO3)cc1`, the AC50 was > 30 µM (inactive).

For the molecule `CC(=O)Nc1ccc(CC#N)cc1`, the AC50 was > 30 µM (inactive).

In the case of `c1ccc2c(c1)c1ccccc1n1c(-c3ccc4c(c3)OCO4)nnc21`, the AC50 is > 30 µM (inactive).

Turning to `Cc1nnc(NC(=O)c2cccc(S(=O)(=O)N3CC(c4ccccc4)CC3=O)c2)s1` (stereo not given), the AC50 is > 30 µM (inactive).

Consider `C=CCNC(=S)N1CCN(c2cccc(C(F)(F)F)c2)CC1`, for which the AC50 is > 30 µM (inactive).

With `Cc1ccc(-c2cn3cccnc3n2)cc1NC(=O)c1ccc(Br)o1`, the AC50 was > 30 µM (inactive).

Turning to `CC(C)COC(=O)N1CCCC1C(=O)Nc1nccs1` (stereo not given), the AC50 was > 30 µM (inactive).

On to `Cc1ccc2c(c1)Oc1ccc(NC(=O)CCl)cc1C(=O)N2`, for which the AC50 was > 30 µM (inactive).

With `O=C(NCCCn1ccnc1)C(F)(F)C(F)(F)C(=O)NCCCn1ccnc1`, the AC50 is > 30 µM (inactive).

Turning to `NNC(=O)CCCCCCCCCCOCCCCO`, the AC50 was > 30 µM (inactive).

For the molecule `N#Cc1c(C#N)c(-c2ccccc2)n(-c2ccc(C(=O)O)cc2)c1N`, the AC50 was 14.2 µM.

As to `CCCCc1[nH]c(=O)c(C#N)c2c1CCCC2`, the AC50 was > 30 µM (inactive).

Regarding `O=C(CSc1nc2[nH]ncc2c(=O)n1-c1ccc(Cl)c(Cl)c1)NCc1ccccc1Cl`, the AC50 was > 30 µM (inactive).

As to `Cc1ccc(-n2nnnc2CSc2nnc(-c3ccc(O)cc3)o2)cc1`, the AC50 was 5.51 µM.

With `Cc1cccc(C(=O)OCC(=O)Nc2c(C)n(C)n(-c3ccccc3)c2=O)c1`, the AC50 was > 30 µM (inactive).

As for `Cc1c(Nc2ncccc2C(=O)O)cccc1C(F)(F)F`, the AC50 was > 30 µM (inactive).

For the molecule `COc1ccc2ccccc2c1/C=N/NC(=O)c1sc(N)c(C#N)c1C`, the AC50 was 25.3 µM.

Take `Fc1cccc(Nc2nc(-c3ccncc3)nc3ccccc23)c1`: the AC50 is > 30 µM (inactive).

With `COc1ccc(-c2csc3ncnc(NCCCO)c23)cc1`, the AC50 is 20.6 µM.

For the molecule `CC(NC(=O)COc1ccccc1F)C1CC2CCC1C2` (stereo not given), the AC50 was > 30 µM (inactive).

For the molecule `Cc1cccc(N2CCN(C(=O)c3cc4c(=O)[nH]c5ccccc5c4n3C)CC2)c1C`, the AC50 is > 30 µM (inactive).

As to `O=C(Oc1cccc([N+](=O)[O-])c1)N1CCCCC1`, the AC50 is > 30 µM (inactive).

As to `c1ccc2[nH]c(Cn3nnc4ccccc43)nc2c1`, the AC50 is > 30 µM (inactive).

Take `COC(=O)c1ccc2c(=O)[nH]c(COC(=O)c3cccc(S(=O)(=O)N4CCOCC4)c3)nc2c1`: the AC50 is 6.88 µM.

Regarding `C/C(=N\O)C(=O)NCCCn1ccnc1`, the AC50 is > 30 µM (inactive).
